Reference: PMC12078333, “Pharmacokinetic evaluation and bioavailability of KPT-335 (Verdinexor) in cats” (Frontiers in Veterinary Science, 2025)
Like-named read-outs stand apart in the source and are kept apart here.

Experiment: Pharmacokinetics study of KPT-335 in cats (i.v. injection, p.o. capsules and tablets; UPLC-MS/MS, non-compartmental analysis)
Format: in vivo
Details: both sexes, plasma, cats; for AUC(0-t): read-out: AUClast; for AUC(0-inf): read-out: AUCINF_obs; for Cmax: read-out: Cmax
Method: In this study, a parallel trial design was employed, 42 adult domestic cats (21 males and 21 females), aged 1 to 2 years and weighing 2.5 ± 0.25 kg. Cats were grouped by random number, with half male and female in each group, and all cats were determined to be systemically healthy during an initial screening visit 1 week prior to the experiment. They were acclimatized to the laboratory environment for 7 days before the study commenced. During this period, they were kept in solitary cages with free access to water. Cats in the fasting group were deprived of food for 12 h prior to and 2 h following drug administration, while those in the feeding group were fed twice a day. Food and water sources were consistent throughout the trail. During and at the end of the experiment, we systematically assessed the adverse reactions by recording parameters such as body weight, behavior, and coat gloss in all test cats both before and after the trial. These observations were conducted to evaluate whether any adverse reactions occurred. All procedures were reviewed and approved by the Institutional Animal Care and Use Committee of China Agricultural University (11305-23-E-002).
The UPLC-MS/MS system utilized a UPLC 1290 (Agilent) paired with a Phenomenex Kinetex C18 column (50 mm × 2.1 mm, 2.6 μm) for separation at a flow rate of 0.3 mL/min. The chromatographic mobile phase comprised water (A) and acetonitrile (B), both containing 0.1% formic acid. The gradient elution program was as follows: from 0.5 to 2.5 min, 10 to 95% B; from 2.5 to 4.5 min, 95% B; from 4.5 to 4.6 min, 95 to 10% B; and from 4.6 to 6.0 min, 10% B. The injection volume was 2 μL.
For mass spectrometry, an Agilent 6,475-LC-TQ equipped with an electrospray ion source was used. Multiple Reaction Monitoring (MRM) was selected to quantify KPT-335 in the positive ion mode. The ion transitions monitored were m/z 443.1 → 334.0 and 443.1 → 110.1 for KPT-335, and m/z 444.1 → 334.0 for the internal standard (IS). The cone voltage and collision energy were optimized for KPT-335 and the IS individually, set at 160 V and 25 eV, respectively. The optimized parameters for the instrument included an ion source temperature of 350°C, solvent removal temperature of 320°C, capillary voltage of 3.0 kV, and a solvent gas flow rate of 300 L/h.
The method was developed based on prior research conducted in the laboratory ([16]) and validated in accordance with international guidelines ([17]). The calibration concentration range for KPT-335 spanned from 0.5 to 100 ng/mL, with a lower limit of quantification (LLOQ) set at 0.5 ng/mL. The squared correlation coefficient (R^2) values exceeded 0.999, indicating high linearity.
For sample preparation, 100 μL of plasma was mixed with 10 μL of internal standard (IS) and 900 μL of acetonitrile, followed by vortexing for 2 min. The mixture was then centrifuged at 13,400 × g at 4°C for 10 min. The supernatant was filtered through a 0.22 μm organic membrane, and the resulting sample was analyzed using UPLC-MS/MS.
Cats were divided into seven groups, with six cats in each group. In the intravenous (i.v.) group (Group 1), cats received an injection of KPT-335 at a dosage of 1 mg/kg body weight (BW), administered via a bolus through a venous infusion needle. For the oral (p.o.) administration, cats were given capsules in a fasting state at doses of 0.2 mg/kg BW (Group 2), 1 mg/kg BW (Group 3), and 2 mg/kg BW (Group 4). Additionally, tablets were administered at 1 mg/kg BW (fasting, Group 5), 1 mg/kg BW (Group 6), and 2 mg/kg BW (Group 7) in a feeding state, followed by 3 mL of water delivered with a syringe.
For the p.o. administration, blood samples of 1.5 mL were collected via the brachial cephalic vein prior to administration and at 0.167, 0.333, 0.5, 0.75, 1, 1.5, 2, 4, 6, 8, 12, 24, 32, and 48 h post-administration. […]

[1] = cat, po, 1 mg/kg, tablet p.o. 1 mg/kg BW after feeding, mean, read-out: Plasma concentration Mean
[2] = cat, po, 1 mg/kg, tablet p.o. 1 mg/kg BW after feeding, mean
[3] = cat, po, 2 mg/kg, capsule p.o. 2 mg/kg BW, mean, read-out: Plasma concentration Mean
[4] = cat, po, 2 mg/kg, capsule p.o. 2 mg/kg BW, mean
[5] = cat, po, 2 mg/kg, tablet p.o. 2 mg/kg BW after feeding, mean, read-out: Plasma concentration Mean
[6] = cat, po, 2 mg/kg, tablet p.o. 2 mg/kg BW after feeding, mean
[7] = cat, po, 2 mg/kg, tablet p.o. 2 mg/kg BW after feeding, individual cats 1-6, read-out: Plasma concentration
[8] = iv, 1 mg/kg, i.v., Injection, 1 mg/kg BW
[9] = po, 0.2 mg/kg, p.o., Capsule, Fasting, 0.2 mg/kg BW

O=C(/C=C\n1cnc(-c2cc(C(F)(F)F)cc(C(F)(F)F)c2)n1)NNc1ccccn1 [KPT-335]
concentration at 32 h (cat, po, 1 mg/kg, tablet p.o. 1 mg/kg BW after fasting, mean): 0.00511 µg/mL | concentration at 48 h (cat, po, 1 mg/kg, tablet p.o. 1 mg/kg BW after fasting, mean, read-out: Plasma concentration Mean): 0.00226 µg/mL | concentration at 0.167 h [1]: 0.0138 µg/mL | concentration at 0.33 h [2]: 0.0791 µg/mL | concentration at 0.5 h [2]: 0.148 µg/mL | concentration at 0.75 h [2]: 0.257 µg/mL | concentration at 1 h [1]: 0.334 µg/mL | concentration at 1.5 h [1]: 0.321 µg/mL | concentration at 2 h [1]: 0.304 µg/mL | concentration at 4 h [1]: 0.211 µg/mL | concentration at 6 h [2]: 0.146 µg/mL | concentration at 8 h [2]: 0.107 µg/mL | concentration at 12 h [2]: 0.0521 µg/mL | concentration at 24 h [2]: 0.00774 µg/mL | concentration at 32 h [2]: 0.00337 µg/mL | concentration at 48 h [1]: 0.00125 µg/mL | concentration at 0.167 h [3]: 0.00068 µg/mL | concentration at 0.33 h [4]: 0.00876 µg/mL | concentration at 0.5 h [4]: 0.0525 µg/mL | concentration at 0.75 h [4]: 0.152 µg/mL | concentration at 1 h [3]: 0.206 µg/mL | concentration at 1.5 h [3]: 0.272 µg/mL | concentration at 2 h [3]: 0.269 µg/mL | concentration at 4 h [3]: 0.187 µg/mL | concentration at 6 h [4]: 0.111 µg/mL | concentration at 8 h [4]: 0.0741 µg/mL | concentration at 12 h [4]: 0.0401 µg/mL | concentration at 24 h [4]: 0.00956 µg/mL | concentration at 32 h [4]: 0.00407 µg/mL | concentration at 48 h [3]: 0.00128 µg/mL | AUC(0-t) (cat, po, 2 mg/kg, p.o., Tablet, Feeding, 2 mg/kg BW): 3 µg·h/mL | concentration at 0.167 h [5]: 0.0169 µg/mL | concentration at 0.33 h [6]: 0.0959 µg/mL | concentration at 0.5 h [6]: 0.222 µg/mL | concentration at 0.75 h [6]: 0.389 µg/mL | concentration at 1 h [7]: 0.288 µg/mL | concentration at 1 h [5]: 0.464 µg/mL | concentration at 1.5 h [7]: 0.366 µg/mL | concentration at 1.5 h [5]: 0.555 µg/mL | concentration at 2 h [7]: 0.303 µg/mL | concentration at 2 h [5]: 0.516 µg/mL | concentration at 4 h [5]: 0.333 µg/mL | concentration at 6 h [6]: 0.187 µg/mL | concentration at 8 h [6]: 0.126 µg/mL | concentration at 12 h [6]: 0.045 µg/mL | concentration at 24 h [6]: 0.00655 µg/mL | concentration at 32 h [6]: 0.00228 µg/mL | Tmax (cat, po, all p.o. groups, read-out: Tmax after oral (p.o.) administration): 1 to 2.5 h | bioavailability (cat, po, p.o. capsules 0.2–2 mg/kg BW, read-out: absolute bioavailability, capsule group range): 28.9 to 44.7% | bioavailability (cat, po, p.o. tablets 1–2 mg/kg BW, read-out: absolute bioavailability, tablet group range): 47.3 to 75.9% | MRT last (iv, 1 mg/kg, Injection, 1 mg/kg BW): 4.73 ± 1.1 h | AUC(0-inf) [8]: 3.2 ± 0.851 µg·h/mL | AUC(0-t) [8]: 3.17 ± 0.842 µg·h/mL | Cmax [8]: 0.851 ± 0.285 µg/mL | k el (iv, 1 mg/kg, i.v., Injection, 1 mg/kg BW, read-out: Lambda_z (converted)): 5e-05 s⁻¹ | MRT last (po, 0.2 mg/kg, Capsule, Fasting, 0.2 mg/kg BW): 8.66 ± 2.71 h | AUC(0-inf) [9]: 0.314 ± 0.22 µg·h/mL | AUC(0-t) [9]: 0.278 ± 0.158 µg·h/mL | Cmax [9]: 0.0276 ± 0.00902 µg/mL
